Assays:
[1] = biological target: T1, Cyclin-G-associated kinase [25-335] (Human, UniProt O14976); assay: GAK pSENs Assay
T1 construct: 25-335
T1 sequence (O14976 whole entry): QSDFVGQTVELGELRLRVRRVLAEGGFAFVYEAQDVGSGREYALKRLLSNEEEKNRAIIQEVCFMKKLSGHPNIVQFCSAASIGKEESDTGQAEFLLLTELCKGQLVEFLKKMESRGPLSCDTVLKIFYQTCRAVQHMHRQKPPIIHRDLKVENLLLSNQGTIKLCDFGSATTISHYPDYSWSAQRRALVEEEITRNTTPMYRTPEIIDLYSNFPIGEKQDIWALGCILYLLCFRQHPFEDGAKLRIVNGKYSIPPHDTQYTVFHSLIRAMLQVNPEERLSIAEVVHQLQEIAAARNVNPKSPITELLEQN
Text: This example describes one illustrative method for determining the IC50 of the compounds of the present invention against GAK (amino acids Q25-N335).

[2] = biological target: T2, BMP-2-inducible protein kinase [38-345,K320A,K321A] (Human, UniProt Q9NSY1, K320A/K321A); assay: BIKE pSENs Assay
T2 construct: 38-345
Protocol: BIKE protein was dissolved at 20 nM in 1× enzyme solution (50 mM HEPES pH7.5, 10 mM MgCl2, 1 mM DTT, 1% glycerol, 0.5 mM EGTA, 0.01% Briji35, 0.02% BSA) and 12.5 ul was incubated with 250 nl DMSO or 250 nl compound in DMSO at 25° C. for 15 min. The reaction was started by addition of 12.5 ul of 30 uM AQT0759 (Assayquant, CSKS-AQT0759B) and 40 uM ATP which were diluted in 1× substrate dilution buffer (50 mM HEPES pH7.5, 10 mM MgCl2. 1 mM DTT, 1% glycerol, 0.5 mM EGTA, 0.01% Briji35).

T2 sequence (Q9NSY1 38-345 K320A/K321A): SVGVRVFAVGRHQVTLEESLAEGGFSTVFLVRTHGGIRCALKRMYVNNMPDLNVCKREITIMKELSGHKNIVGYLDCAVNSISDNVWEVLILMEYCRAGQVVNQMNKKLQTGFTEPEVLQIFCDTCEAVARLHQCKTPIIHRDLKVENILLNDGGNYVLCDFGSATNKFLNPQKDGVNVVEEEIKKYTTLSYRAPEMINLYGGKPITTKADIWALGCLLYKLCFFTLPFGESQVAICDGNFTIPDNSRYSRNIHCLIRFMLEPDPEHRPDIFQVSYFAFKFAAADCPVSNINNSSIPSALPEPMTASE

IC50 [1]: > 1500 nM | IC50 [2]: > 1500 nM
Structure (SMILES): CN(CCN1C[C@@H](OC(=O)N2CCN(c3ccn4ncc(-c5cccnc5OC5CC5)c4n3)CC2)CC1=O)C(=O)OC(C)(C)C [US20250270222, Compound I-35]

Reference: BindingDB's records for patent US20250270222 (Satellos Bioscience, 2025)
